Results reported in PubChem BioAssay (NCI).
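Each compound was tested at five concentrations against cells in 96-well plates for 48 hours. TGI denotes the concentration required for complete inhibition of growth.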

Columns and labels:
Test in all cases: NCI tumour cell line growth inhibition, 48 h
[1] = test system: A549 NSCLC
[2] = test system: HOP-62 NSCLC
[3] = test system: HT29 colon
[4] = test system: IGROV1 ovarian
[5] = test system: K-562 leukemia
[6] = test system: KM12 colon
[7] = test system: MALME-3M melanoma
[8] = test system: MCF7 breast
[9] = test system: MDA-MB-435
[10] = test system: OVCAR-8 ovarian
[11] = test system: SF-295 CNS
[12] = test system: SK-MEL-28 melanoma
[13] = test system: SK-OV-3 ovarian
[14] = test system: UACC-62 melanoma
[15] = test system: HOP-92 NSCLC

| SMILES | TGI [1] [µM] | TGI [2] [µM] | TGI [3] [µM] | TGI [4] [µM] | TGI [5] [µM] | TGI [6] [µM] | TGI [7] [µM] | TGI [8] [µM] | TGI [9] [µM] | TGI [10] [µM] | TGI [11] [µM] | TGI [12] [µM] | TGI [13] [µM] | TGI [14] [µM] | TGI [15] [µM] |
| --- | --- | --- | --- | --- | --- | --- | --- | --- | --- | --- | --- | --- | --- | --- | --- |
| CN1CC2=C(NC(=S)NC2c2ccc(Cl)cc2)/C(=C/c2ccc(Cl)cc2)C1 (configuration not stated) | 45.1 | 36.4 | 34 | 32.6 | 32.7 | 38.2 | 36.8 | 68.4 | 30.1 | 37.8 | 33.8 | 33.9 | 31.4 | 33.8 |  |
| NC(=O)c1csc(CCCCCCc2nc(C(N)=O)cs2)n1 | > 100 | > 100 | > 59.8 | > 100 | > 62.8 | > 100 | > 100 |  |  | > 100 | > 100 | > 100 | > 100 | > 100 | > 100 |
| O=C(/C=C/c1c(O)ccc2ccccc12)c1cccc2ccccc12 | > 100 | > 100 | > 100 | > 100 | > 88.6 | > 100 | > 100 |  |  | > 100 | > 100 | > 100 | > 100 | > 100 | > 100 |
| Cn1c(=O)c2c(nc(C[N+]3([O-])CCOCC3)n2C)n(C)c1=O | > 100 | > 100 | > 100 | > 100 | > 100 | > 100 | > 100 |  |  | > 100 |  | > 100 | > 100 | > 100 | > 100 |
| COc1ccc(C2CCC(Cl)(OC)CC2C=O)cc1 (configuration not stated) | > 100 | > 100 | > 100 | > 100 | > 100 | > 100 | > 100 |  |  | > 100 | > 100 | > 100 | > 100 | > 100 | > 100 |
| CCCCSC1=N/C(=C\c2ccco2)C(=O)N1 | > 100 | > 100 | > 100 | > 100 |  | > 100 | > 100 | > 100 | > 100 | > 100 | > 100 | > 100 | > 100 | > 100 |  |
| CCOC(=O)C1=C(O)c2ccccc2C(=O)C1=O | > 100 | > 100 | > 100 | > 100 | > 100 | > 100 | > 100 |  |  | > 100 | > 100 | > 100 | > 100 | > 100 | > 100 |
| CC(=O)OC1OC2C(NC(=O)OC(C)(C)C)C1CC2(OCc1ccccc1)OCc1ccccc1 (configuration not stated) | > 100 | 76.3 | > 100 | 90.3 | > 94.8 | 71.5 | 20.8 |  |  | > 100 | > 91.5 | 57.2 | 74.9 | 42.2 | 30.3 |
| O=C(O)c1cc(-c2ccccc2O)nc2ccccc12 | > 100 | > 100 | > 100 | > 100 | > 100 | > 100 | > 100 |  |  | > 100 | > 100 | > 100 | > 100 | > 100 |  |
| COC(C/C(=C/CO[Si](C(C)C)(C(C)C)C(C)C)C(=O)Nc1ccccc1I)OC | > 100 | > 100 | > 100 | 28.7 | > 100 | > 100 | 31.8 |  | > 100 | > 100 | 28.2 | > 100 | > 100 | > 100 | 61.7 |
| COC(=O)/C(C#N)=C1\NC(=O)CC(c2ccccc2)C1C#N (configuration not stated) | > 100 | > 100 | > 100 | > 100 | > 100 | > 100 | > 100 | > 100 |  | > 100 | > 100 | > 100 | > 100 | > 100 | > 100 |
| Cc1cc(S(=O)(=O)Nc2nc(N)nc(N3CCOCC3)n2)c(SCC(=O)O)cc1Cl | > 10 | > 10 | > 10 | > 10 | > 10 | > 10 | > 10 | > 10 |  | > 10 | > 10 | > 10 | > 10 |  | > 10 |
| Cc1ccc(S(=O)(=O)[N-]C2C(=O)c3ccccc3C(=O)C2[n+]2cccc(C(N)=O)c2)cc1 (configuration not stated) | > 100 | > 100 | > 100 | > 100 | > 100 | > 100 |  | > 100 | > 100 | > 100 | > 100 | > 100 | > 100 | > 100 | > 100 |
| O=c1oc2cc(O)ccc2c(O)c1C(c1ccccn1)c1c(O)c2ccc(O)cc2oc1=O | > 100 | > 100 | > 100 | > 100 | > 100 | > 100 |  | > 100 | > 100 | > 100 | > 100 | > 100 | > 100 | > 100 | > 100 |
| COc1cccc(/C(C=O)=C(\Cl)c2ccc(OC)c(OC)c2)c1 | 46.8 | 25.1 | 27.5 | 41.8 | 46.2 | 29.1 | 29 |  |  | 30.3 | 28.9 | 29 | 58.8 | 17.4 | 38.7 |
| O=c1n(-c2ccccc2)c(=O)n2n1C1CCC2CC1 | > 100 | > 100 | > 100 | > 100 | > 100 | > 100 |  | > 100 | > 100 | > 100 | > 100 | > 100 | > 100 | > 100 | > 100 |
